# Laboratory results from publication PMC9025269, “Synthesis and Anti-Hepatitis B Activities of 3′-Fluoro-2′-Substituted Apionucleosides” (Molecules, 2022).
# Assays:
# Type in all cases: biochemical
# HBV polymerase = molecular target: T1, HBV polymerase (Hepatitis B virus genotype D subtype ayw, UniProt P03156); assay: HBV polymerase RdDp activity assay; conditions: read-out: HBV pol IC50
# T1 construct: Recombinant HBV polymerase (Hepatitis B virus genotype D subtype ayw, full length); made in house; host or cells: Sf9 insect cells (baculovirus)
# T1 sequence (P03156 whole entry): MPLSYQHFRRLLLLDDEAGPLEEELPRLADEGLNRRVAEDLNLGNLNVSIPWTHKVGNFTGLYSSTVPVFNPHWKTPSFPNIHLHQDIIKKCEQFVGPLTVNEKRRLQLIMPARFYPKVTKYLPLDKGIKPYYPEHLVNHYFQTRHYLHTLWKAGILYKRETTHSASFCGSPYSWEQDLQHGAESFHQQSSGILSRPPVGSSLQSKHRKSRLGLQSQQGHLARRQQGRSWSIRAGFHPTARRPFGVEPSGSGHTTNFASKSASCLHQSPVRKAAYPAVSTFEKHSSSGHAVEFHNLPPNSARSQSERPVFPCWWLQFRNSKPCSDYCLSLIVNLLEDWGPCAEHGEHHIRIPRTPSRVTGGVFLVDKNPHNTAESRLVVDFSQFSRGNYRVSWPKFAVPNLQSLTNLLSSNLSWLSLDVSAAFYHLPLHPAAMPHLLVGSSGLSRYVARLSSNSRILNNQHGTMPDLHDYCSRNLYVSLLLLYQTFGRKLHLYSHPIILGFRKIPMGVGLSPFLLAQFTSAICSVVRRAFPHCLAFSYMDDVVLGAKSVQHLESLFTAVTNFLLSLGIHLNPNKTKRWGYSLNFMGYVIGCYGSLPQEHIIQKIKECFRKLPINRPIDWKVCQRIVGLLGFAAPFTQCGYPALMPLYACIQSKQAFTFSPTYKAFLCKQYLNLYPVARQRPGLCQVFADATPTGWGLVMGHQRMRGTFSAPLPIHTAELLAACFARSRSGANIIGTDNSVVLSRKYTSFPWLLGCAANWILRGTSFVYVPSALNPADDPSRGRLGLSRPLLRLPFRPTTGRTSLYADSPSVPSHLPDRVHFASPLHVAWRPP
# Excerpt: HIV-1 reverse transcriptase (HIV-1 RT) was purchased from Abcam (cat#ab63979). Recombinant HBV polymerase (Hepatitis B virus genotype D subtype ayw, full length) was cloned using the baculovirus system, expressed in sf9 cells, and purified with similar strategy and methods described by Lanford et al.. A DNA primer (5′-[…]-3′) was synthesized by IDTDNA and a 358-nt RNA template was synthesized in-house using Megascript T7 transcription kit (ThermoFisher, cat#AM1334). dNTPs were purchased from Thermo Fisher and ^3H-dTTP from Perkin Elmer. Filter plates were purchased from Millipore (cat#MABN0V050) and microscint-20 was purchased from Perkin Elmer (cat#6013621).
# The RdDp activity of HBV polymerase was measured similarly as described for the HIV-1 RT. To test compound inhibition effect, the reactions were performed at 30 °C for 120 min in a reaction mixture containing reaction buffer (50 mM Tris-Cl, pH 7.5, 100 mM KCl, 12.5 mM MgCl2, 4 mM DTT), 15 µg/mL polymerase, 0.5 µM DNA primer, 0.05 µM RNA template, 10% DMSO, 0.046 µM dATP, 0.057 µM dGTP, 0.017 µM dCTP, 0.32 µM ^3H-dTTP, and compounds at various concentrations.
# All data were analyzed with GraphPad Prism. […]
# human DNA polymerase β = molecular target: T2, human DNA polymerase β (Homo sapiens, UniProt P06746); assay: Human DNA polymerase β DdDp assay
# T2 construct: purchased CHIMERx 1077-1
# Method: (§1) The DNA-dependent DNA polymerization (DdDp) activity of human DNA polymerases α, β, and γ was measured as described previously. Briefly, the assays were run with 5 U/mL recombinant DNA polymerase α (CHIMERx, cat#1075-1), 0.5 U/mL recombinant DNA polymerase β (CHIMERx, cat#1077-1), or 0.1 μg/mL recombinant DNA polymerase γ (Abcam, cat#196066), 62 μg/mL activated calf thymus DNA, 50 mM Tris-HCl (pH 8.0), 60 mM KCl, 5 mM MgCl2, 4 mM dithiothreitol (DTT), 0.1 mg/mL BSA, 2 μM dCTP, 2 μM dATP, 2 μM dGTP, 0.05 μCi/μL ^3H-dTTP (Perkin Elmer) and compounds at various concentrations at 30 °C for 2 h. The 50 μL reactions were processed following the same filter plate method as described above for HIV-1 RT. Acid-precipitated tritiated DNA products retained on the filters were detected by a Trilux MicroBeta scintillation reader (Perkin Elmer). All data were analyzed as described above for HIV-1 RT.
# human DNA polymerase γ = molecular target: T3, human DNA polymerase γ (Homo sapiens, UniProt P54098); assay: Human DNA polymerase γ DdDp assay
# T3 construct: purchased Abcam 196066
# T3 sequence (P54098 1-1239): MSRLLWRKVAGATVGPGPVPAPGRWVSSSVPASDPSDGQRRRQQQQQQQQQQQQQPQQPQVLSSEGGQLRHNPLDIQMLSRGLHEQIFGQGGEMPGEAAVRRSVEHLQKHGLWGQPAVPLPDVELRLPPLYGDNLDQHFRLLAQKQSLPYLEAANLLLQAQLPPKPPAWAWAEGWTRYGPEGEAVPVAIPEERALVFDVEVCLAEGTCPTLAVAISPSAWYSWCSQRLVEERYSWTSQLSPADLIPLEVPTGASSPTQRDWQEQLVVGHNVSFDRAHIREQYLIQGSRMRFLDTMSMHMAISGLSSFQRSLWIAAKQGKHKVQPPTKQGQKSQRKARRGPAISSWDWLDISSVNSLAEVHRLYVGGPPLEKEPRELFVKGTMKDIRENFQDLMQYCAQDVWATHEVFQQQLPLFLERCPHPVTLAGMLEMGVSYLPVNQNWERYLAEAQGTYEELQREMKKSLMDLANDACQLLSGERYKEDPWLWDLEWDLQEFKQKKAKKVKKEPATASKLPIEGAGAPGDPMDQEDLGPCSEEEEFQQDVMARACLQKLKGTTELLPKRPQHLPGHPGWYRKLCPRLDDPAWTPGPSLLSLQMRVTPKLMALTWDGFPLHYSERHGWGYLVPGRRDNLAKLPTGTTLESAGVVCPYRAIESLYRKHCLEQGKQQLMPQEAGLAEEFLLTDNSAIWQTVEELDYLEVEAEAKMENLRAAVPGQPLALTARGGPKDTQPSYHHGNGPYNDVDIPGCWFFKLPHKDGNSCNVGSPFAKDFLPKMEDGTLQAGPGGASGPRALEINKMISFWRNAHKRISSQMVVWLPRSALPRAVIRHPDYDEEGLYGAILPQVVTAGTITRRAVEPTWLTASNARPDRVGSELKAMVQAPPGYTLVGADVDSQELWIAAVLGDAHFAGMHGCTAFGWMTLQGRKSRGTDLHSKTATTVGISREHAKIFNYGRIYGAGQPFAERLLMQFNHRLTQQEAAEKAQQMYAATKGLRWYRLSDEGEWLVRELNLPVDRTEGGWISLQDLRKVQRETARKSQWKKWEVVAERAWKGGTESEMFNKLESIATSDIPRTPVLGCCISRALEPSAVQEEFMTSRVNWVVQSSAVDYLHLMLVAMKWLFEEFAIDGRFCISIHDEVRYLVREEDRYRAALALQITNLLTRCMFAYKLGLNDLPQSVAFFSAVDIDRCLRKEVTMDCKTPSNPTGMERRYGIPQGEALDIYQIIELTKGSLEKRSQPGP
# Method: as §1
compound,measurement,setting,value
"Nc1ncnc2c1ncn2[C@@H]1OC[C@](F)(COP(=O)(O)OP(=O)(O)OP(=O)(O)O)[C@H]1CO [Compound 38, ((3S,4S,5R)-5-(6-Amino-9H-purin-9-yl)-3-fluoro-4-(hydroxymethyl)tetrahydrofuran-3-yl)methyl triphosphate]",IC50,HBV polymerase,0.12 µM
same,IC50,human DNA polymerase β,> 100 µM
same,IC50,human DNA polymerase γ,> 100 µM
